Where “and” joins values, the source holds several entries; their conditions need not be identical. Equal values may be shown once. Inconclusive results and toxic doses are left out. Rule as the data show it: active = T/C of 150% or more; inactive = T/C below 125%.
System: L1210 leukemia ip in BDF1 mice, survival T/C
Test: NCI In Vivo Anticancer Drug Screen. Data for tumor model L1210 Leukemia (intraperitoneal) in B6D2F1 (BDF1) mice
Conditions: higher = longer survival
Method in brief: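 Read-out is survival time, reported as the treated-group measurement over the vehicle-control measurement.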

[1] = endpoint: mean survival time, dose: 100.0 mg/kg/injection, schedule: Q04DX003 (ip), vehicle: saline with Tween-80
[2] = endpoint: mean survival time, dose: 200.0 mg/kg/injection, schedule: Q04DX003 (ip), vehicle: saline with Tween-80
[3] = endpoint: mean survival time, dose: 400.0 mg/kg/injection, schedule: Q04DX003 (ip), vehicle: saline with Tween-80

Measured: T/C

CS(=O)(=O)OCCCCOS(C)(=O)=O
inactive: endpoint: mean survival time, dose: 1.5 mg/kg/injection, schedule: Q04DX002 (ip), vehicle: saline with Tween-80 95 % of control and 106 % of control | endpoint: mean survival time, dose: 1.7 mg/kg/injection, schedule: Q01DX009 (ip), vehicle: saline with Tween-80 96 % of control and 108 % of control | endpoint: mean survival time, dose: 2.9 mg/kg/injection, schedule: Q04DX002 (ip), vehicle: saline with Tween-80 100 % of control and 107 % of control | endpoint: mean survival time, dose: 3.3 mg/kg/injection, schedule: Q01DX009 (ip), vehicle: saline with Tween-80 96 % of control and 105 % of control | endpoint: mean survival time, dose: 3.75 mg/kg/injection, schedule: Q01DX001 (ip), vehicle: carboxymethylcellulose (CMC) 103 % of control | endpoint: mean survival time, dose: 5.8 mg/kg/injection, schedule: Q04DX002 (ip), vehicle: saline with Tween-80 98 % of control and 102 % of control | endpoint: mean survival time, dose: 6.25 mg/kg/injection, schedule: Q01DX010 (ip), vehicle: saline 108 % of control and 118 % of control | endpoint: mean survival time, dose: 6.5 mg/kg/injection, schedule: Q01DX009 (ip), vehicle: saline with Tween-80 99 % of control and 105 % of control | endpoint: mean survival time, dose: 7.5 mg/kg/injection, schedule: Q01DX001 (ip), vehicle: carboxymethylcellulose (CMC) 112 % of control | endpoint: mean survival time, dose: 9.5 mg/kg/injection, schedule: Q02DX010 (ip), vehicle: carboxymethylcellulose (CMC) 111 % of control | endpoint: mean survival time, dose: 10.0 mg/kg/injection, schedule: Q01DX Z (ip), vehicle: carboxymethylcellulose (CMC) 104 % of control | endpoint: mean survival time, dose: 10.0 mg/kg/injection, schedule: Q02DX010 (ip), vehicle: carboxymethylcellulose (CMC) 97 % of control | endpoint: mean survival time, dose: 10.0 mg/kg/injection, schedule: Q02DX010 (ip), vehicle: other 112 % of control | endpoint: mean survival time, dose: 11.5 mg/kg/injection, schedule: Q04DX002 (ip), vehicle: saline with Tween-80 98 % of control and 109 % of control | endpoint: mean survival time, dose: 12.5 mg/kg/injection, schedule: Q01DX009 (ip), vehicle: saline 97 % of control and 104 % of control and 88 % of control | endpoint: mean survival time, dose: 12.5 mg/kg/injection, schedule: Q01DX010 (ip), vehicle: saline 116 % of control and 118 % of control | endpoint: mean survival time, dose: 12.5 mg/kg/injection, schedule: Q01DX Z (ip), vehicle: carboxymethylcellulose (CMC) 93 % of control and 102 % of control | endpoint: mean survival time, dose: 13.0 mg/kg/injection, schedule: Q01DX009 (ip), vehicle: saline with Tween-80 99 % of control and 101 % of control | endpoint: mean survival time, dose: 14.0 mg/kg/injection, schedule: Q02DX010 (ip), vehicle: carboxymethylcellulose (CMC) 96 % of control | endpoint: mean survival time, dose: 15.0 mg/kg/injection, schedule: Q01DX001 (ip), vehicle: carboxymethylcellulose (CMC) 101 % of control | endpoint: mean survival time, dose: 15.0 mg/kg/injection, schedule: Q02DX010 (ip), vehicle: carboxymethylcellulose (CMC) 98 % of control | endpoint: mean survival time, dose: 15.0 mg/kg/injection, schedule: Q02DX010 (ip), vehicle: other 104 % of control | endpoint: mean survival time, dose: 20.0 mg/kg/injection, schedule: Q01DX Z (ip), vehicle: carboxymethylcellulose (CMC) 103 % of control | endpoint: mean survival time, dose: 22.0 mg/kg/injection, schedule: Q02DX010 (ip), vehicle: carboxymethylcellulose (CMC) 103 % of control and 113 % of control | endpoint: mean survival time, dose: 22.0 mg/kg/injection, schedule: Q02DX010 (ip), vehicle: other 106 % of control | endpoint: mean survival time, dose: 23.0 mg/kg/injection, schedule: Q04DX002 (ip), vehicle: saline with Tween-80 98 % of control and 100 % of control | endpoint: mean survival time, dose: 25.0 mg/kg/injection, schedule: Q01DX009 (ip), vehicle: saline with Tween-80 101 % of control and 115 % of control | endpoint: mean survival time, dose: 25.0 mg/kg/injection, schedule: Q01DX009 (ip), vehicle: saline 96 % of control (2×) and 111 % of control | endpoint: mean survival time, dose: 25.0 mg/kg/injection, schedule: Q01DX Z (ip), vehicle: carboxymethylcellulose (CMC) 102 % of control and 105 % of control | endpoint: mean survival time, dose: 27.0 mg/kg/injection, schedule: Q01DX001 (ip), vehicle: carboxymethylcellulose (CMC) 96 % of control | endpoint: mean survival time, dose: 30.0 mg/kg/injection, schedule: Q01DX001 (ip), vehicle: carboxymethylcellulose (CMC) 106 % of control | endpoint: mean survival time, dose: 33.0 mg/kg/injection, schedule: Q02DX010 (ip), vehicle: other 112 % of control | endpoint: mean survival time, dose: 40.0 mg/kg/injection, schedule: Q01DX Z (ip), vehicle: carboxymethylcellulose (CMC) 110 % of control | endpoint: mean survival time, dose: 40.0 mg/kg/injection, schedule: Q01DX Z (oral), vehicle: saline 94 % of control | endpoint: mean survival time, dose: 41.0 mg/kg/injection, schedule: Q01DX001 (ip), vehicle: carboxymethylcellulose (CMC) 103 % of control | endpoint: mean survival time, dose: 46.0 mg/kg/injection, schedule: Q04DX002 (ip), vehicle: saline with Tween-80 104 % of control and 107 % of control | endpoint: mean survival time, dose: 49.0 mg/kg/injection, schedule: Q01DX009 (ip), vehicle: saline with Tween-80 103 % of control and 121 % of control | endpoint: mean survival time, dose: 50.0 mg/kg/injection, schedule: Q01DX009 (ip), vehicle: saline 98 % of control and 109 % of control and 120 % of control | endpoint: mean survival time, dose: 50.0 mg/kg/injection, schedule: Q01DX010 (ip), vehicle: saline 111 % of control and 88 % of control | endpoint: mean survival time, dose: 50.0 mg/kg/injection, schedule: Q01DX Z (ip), vehicle: carboxymethylcellulose (CMC) 103 % of control | endpoint: mean survival time, dose: 50.0 mg/kg/injection, schedule: Q02DX010 (ip), vehicle: carboxymethylcellulose (CMC) 101 % of control and 107 % of control | endpoint: mean survival time, dose: 50.0 mg/kg/injection, schedule: Q02DX010 (ip), vehicle: other 115 % of control | endpoint: mean survival time, dose: 60.0 mg/kg/injection, schedule: Q01DX001 (ip), vehicle: carboxymethylcellulose (CMC) 110 % of control | endpoint: mean survival time, dose: 61.0 mg/kg/injection, schedule: Q01DX001 (ip), vehicle: carboxymethylcellulose (CMC) 98 % of control | endpoint: mean survival time, dose: 75.0 mg/kg/injection, schedule: Q02DX010 (ip), vehicle: carboxymethylcellulose (CMC) 89 % of control | endpoint: mean survival time, dose: 80.0 mg/kg/injection, schedule: Q01DX Z (oral), vehicle: saline 105 % of control | endpoint: mean survival time, dose: 100.0 mg/kg/injection, schedule: Q01DX009 (ip), vehicle: saline 88 % of control | endpoint: mean survival time, dose: 100.0 mg/kg/injection, schedule: Q01DX Z (ip), vehicle: carboxymethylcellulose (CMC) 93 % of control | [1] 101 % of control | endpoint: mean survival time, dose: 120.0 mg/kg/injection, schedule: Q01DX001 (ip), vehicle: carboxymethylcellulose (CMC) 100 % of control | endpoint: mean survival time, dose: 160.0 mg/kg/injection, schedule: Q01DX Z (oral), vehicle: saline 108 % of control | [2] 104 % of control | [3] 104 % of control | endpoint: median survival time, dose: 10.0 mg/kg/injection, schedule: Q01DX009 (ip), vehicle: saline 105 % of control | endpoint: median survival time, dose: 12.5 mg/kg/injection, schedule: Q01DX009 (ip), vehicle: saline 95 % of control and 112 % of control | endpoint: median survival time, dose: 20.0 mg/kg/injection, schedule: Q01DX009 (ip), vehicle: saline 100 % of control | endpoint: median survival time, dose: 25.0 mg/kg/injection, schedule: Q01DX009 (ip), vehicle: saline 110 % of control and 112 % of control | endpoint: median survival time, dose: 40.0 mg/kg/injection, schedule: Q01DX009 (ip), vehicle: saline 100 % of control | endpoint: median survival time, dose: 50.0 mg/kg/injection, schedule: Q01DX009 (ip), vehicle: saline 100 % of control and 112 % of control | endpoint: median survival time, dose: 80.0 mg/kg/injection, schedule: Q01DX009 (ip), vehicle: saline 110 % of control | endpoint: median survival time, dose: 100.0 mg/kg/injection, schedule: Q01DX009 (ip), vehicle: saline 100 % of control | endpoint: median survival time, dose: 160.0 mg/kg/injection, schedule: Q01DX009 (ip), vehicle: saline 100 % of control

CNC(=O)Oc1cccc(NC(=O)OCC#CCCl)c1
inactive: endpoint: mean survival time, dose: 100.0 mg/kg/injection, schedule: Q01DX001 (ip), vehicle: saline with Tween-80 92 % of control | endpoint: mean survival time, dose: 200.0 mg/kg/injection, schedule: Q01DX001 (ip), vehicle: saline with Tween-80 90 % of control | endpoint: mean survival time, dose: 400.0 mg/kg/injection, schedule: Q01DX001 (ip), vehicle: saline with Tween-80 90 % of control

O/N=C(\CC(O)(C(F)(F)F)C(F)(F)F)c1cccs1
inactive: endpoint: mean survival time, dose: 50.0 mg/kg/injection, schedule: Q04DX003 (ip), vehicle: saline with Tween-80 98 % of control | [1] 98 % of control | [2] 98 % of control | [3] 95 % of control

O=C(CCl)NC1=C(Cl)C(=O)c2ccccc2C1=O
inactive: endpoint: mean survival time, dose: 75.0 mg/kg/injection, schedule: Q01DX001 (ip), vehicle: saline 93 % of control

O=Cc1[nH]c(=S)[nH]c(=O)c1Cc1cccc(Cl)c1
inactive: endpoint: mean survival time, dose: 100.0 mg/kg/injection, schedule: Q01DX009 (ip), vehicle: saline with Tween-80 100 % of control | [1] 94 % of control | endpoint: mean survival time, dose: 200.0 mg/kg/injection, schedule: Q01DX009 (ip), vehicle: saline with Tween-80 100 % of control | [2] 94 % of control | endpoint: mean survival time, dose: 400.0 mg/kg/injection, schedule: Q01DX009 (ip), vehicle: saline with Tween-80 100 % of control | [3] 90 % of control

Source: PubChem BioAssay AID248 (DTP/NCI, 2004)
